# Experimental data taken from ChEMBL document CHEMBL4421722, “Inhibitors of protein prenyltransferases” (2013).
# Organism: Rattus norvegicus
# Assay: Inhibition of rat recombinant geranylgeranyltransferase type I expressed in Escherichia coli assessed as residual enzyme activity for geranylgeranylation of K-Ras4B at 50 uM incubated for 30 mins in presence of [3H]GGPP by scintillation counting assay relative to control
row,Activity,SMILES
1,72.2%,Cc1ccc(S(=O)(=O)N2[C@@H](c3cccc(Br)c3)C(C(=O)O)=CC[C@H]2c2ccc(F)cc2)cc1
2,83.8%,COc1ccc([C@@H]2CC=C(C(C)=O)CN2S(=O)(=O)c2ccc(C)cc2)cc1OC
3,72.8%,Cc1ccc(S(=O)(=O)N2[C@@H](c3cccc(F)c3)C(C(=O)O)=CC[C@H]2c2ccc(C(C)C)cc2)cc1
4,69.8%,Cc1ccc([C@@H]2CC=C(C(=O)O)[C@H](c3cccc(C)c3)N2S(=O)(=O)c2ccccc2)cc1
5,96.7%,C=CCS[C@@H]1C[C@@H](c2ccc(OCC)cc2)N(S(=O)(=O)c2ccc(C)cc2)C[C@H]1C(=O)O
6,73.1%,Cc1ccc([C@@H]2C[C@@H](SCC(C)C)[C@H](C(=O)O)CN2S(C)(=O)=O)cc1
7,59.2%,Cc1ccc(S(=O)(=O)N2[C@@H](c3cccc(Cl)c3)C(C(=O)O)=CC[C@H]2c2ccc(Cl)cc2)cc1
8,50.2%,CS(=O)(=O)N1[C@@H](c2ccc(F)cc2)C(C(=O)O)=CC[C@H]1c1ccc(Cl)cc1
9,78.4%,CCOc1ccc([C@@H]2CC=C(C(=O)O)[C@H](c3cccc(Br)c3)N2S(=O)(=O)c2ccc(C)cc2)cc1
10,63.7%,Cc1ccc(S(=O)(=O)N2[C@@H](c3cccc(F)c3)C(C(=O)O)=CC[C@H]2c2ccccc2)cc1
11,69.7%,Cc1ccc(S(=O)(=O)N2[C@@H](c3ccc(Cl)cc3)C(C(=O)O)=CC[C@H]2c2ccccc2)cc1
12,63.1%,Cc1ccc(S(=O)(=O)N2[C@@H](c3cccc(Cl)c3)C(C(=O)O)=CC[C@H]2c2ccc(C(C)C)cc2)cc1
13,91.4%,COc1ccc([C@@H]2CC=C(C(=O)O)[C@H](c3ccc(Cl)cc3)N2S(=O)(=O)c2ccc(C)cc2)cc1
14,60.3%,CS(=O)(=O)N1[C@@H](c2cccc(Cl)c2)C(C(=O)O)=CC[C@H]1c1ccc(Cl)cc1
15,64.8%,Cc1ccc(S(=O)(=O)N2[C@@H](c3ccc(Cl)cc3)C(C(=O)O)=CC[C@H]2c2ccc(F)cc2)cc1
16,67.2%,Cc1ccc([C@@H]2CC=C(C(=O)O)[C@H](c3cccc(Br)c3)N2S(=O)(=O)c2ccccc2)cc1
17,87.5%,COc1ccc([C@@H]2CC=C(C(=O)O)[C@H](c3cccc(F)c3)N2S(=O)(=O)c2ccc(C)cc2)cc1
18,57.6%,Cc1ccc(S(=O)(=O)N2[C@@H](c3ccc(Cl)cc3)C(C(=O)O)=CC[C@H]2c2ccc(C(C)C)cc2)cc1
19,75.7%,Cc1ccc([C@H]2C(C(=O)O)=CC[C@@H](c3ccc4c(c3)OCO4)N2S(=O)(=O)c2ccc(C)cc2)cc1

row,Activity,SMILES
1,77.6%,Cc1ccc([C@@H]2C[C@@H](SCCC(C)C)[C@H](C(=O)O)CN2S(=O)(=O)c2ccc(Cl)cc2)cc1
2,62.3%,Cc1ccc([C@@H]2CC=C(C(=O)O)[C@H](c3cccc(Cl)c3)N2S(=O)(=O)c2ccccc2C)cc1
3,63.4%,Cc1ccc([C@@H]2CC=C(C(=O)O)[C@H](c3cccc(F)c3)N2S(=O)(=O)c2ccccc2C)cc1
4,63.1%,Cc1ccc(S(=O)(=O)N2C[C@@H](C(=O)O)[C@H](SCc3ccccc3)C[C@H]2c2ccc3c(c2)OCO3)cc1
5,66.1%,COc1ccc([C@@H]2CC=C(C(=O)O)[C@H](c3cccc(Cl)c3)N2S(=O)(=O)c2ccccc2C)cc1
6,77.4%,COC(=O)c1ccccc1S(=O)(=O)N1[C@@H](c2ccc(Br)cc2)C(C(=O)O)=CC[C@H]1c1ccc(C)cc1
7,50.7%,C=CCS[C@@H]1C[C@@H](c2ccc(C)cc2)N(S(=O)(=O)c2ccccc2)C[C@H]1C(=O)O
8,99.8%,Cc1ccc([C@H]2C(C(=O)O)=CC[C@@H](c3ccc(C)cc3)N2S(=O)(=O)c2ccccc2)cc1
9,56.6%,Cc1ccc(S(=O)(=O)N2[C@@H](c3cccc(Br)c3)C(C(=O)O)=CC[C@H]2c2ccc(Cl)cc2)cc1
10,73.8%,COc1ccc([C@@H]2CC=C(C(=O)O)[C@H](c3ccc(C)cc3)N2S(=O)(=O)c2ccc(C)cc2)cc1
11,61.4%,Cc1ccc(S(=O)(=O)N2C[C@@H](C(=O)O)[C@H](SCc3ccc(Cl)cc3)C[C@H]2c2ccccc2F)cc1
12,71.2%,Cc1ccc(S(=O)(=O)N2[C@@H](c3cccc(Br)c3)C(C(=O)O)=CC[C@H]2c2ccccc2F)cc1
13,66%,COc1ccc([C@@H]2C[C@@H](SCc3ccc(C(C)(C)C)cc3)[C@H](C(=O)O)CN2S(=O)(=O)c2ccc(Cl)cc2)cc1
14,55.5%,Cc1ccc([C@@H]2C[C@@H](SCCc3ccccc3)[C@H](C(=O)O)CN2S(=O)(=O)c2ccccc2)cc1
15,50.9%,Cc1ccc([C@@H]2CC=C(C(=O)O)[C@H](c3ccc(F)cc3)N2S(=O)(=O)c2ccccc2C)cc1
16,54.4%,Cc1ccccc1S(=O)(=O)N1[C@@H](c2ccc(Cl)cc2)C(C(=O)O)=CC[C@H]1c1ccc(Cl)cc1
17,70.9%,Cc1ccc(S(=O)(=O)N2[C@@H](c3cccc(Cl)c3)C(C(=O)O)=CC[C@H]2c2ccc(C#N)cc2)cc1
18,86.8%,COc1ccc([C@@H]2CC=C(C(=O)O)[C@H](c3ccc(Cl)cc3)N2S(=O)(=O)c2ccccc2)cc1
19,110%,COc1ccc(S[C@@H]2C[C@@H](c3cc(OC)c(OC)c(OC)c3)N(S(=O)(=O)c3ccc(C)cc3)C[C@H]2C(=O)O)cc1

row,Activity,SMILES
1,85.3%,CC(=O)C1=CC[C@@H](c2ccc(C)cc2)N(S(=O)(=O)c2ccccc2C)C1
2,76.4%,C=CCS[C@@H]1C[C@@H](c2ccc3c(c2)OCO3)N(S(=O)(=O)c2ccc(C)cc2)C[C@H]1C(=O)O
3,61.6%,Cc1ccc([C@H]2C(C(=O)O)=CC[C@@H](c3ccc(Cl)cc3)N2S(=O)(=O)c2ccccc2C)cc1
4,70.9%,CCCCCS[C@@H]1C[C@@H](c2ccc(OC)cc2)N(S(=O)(=O)c2ccc(Cl)cc2)C[C@H]1C(=O)O
5,99%,COc1ccc(S[C@@H]2C[C@@H](c3ccc(C)cc3)N(S(C)(=O)=O)C[C@H]2C(=O)O)cc1
6,89.5%,Cc1cccc([C@H]2C(C(=O)O)=CC[C@@H](c3ccc(Cl)cc3)N2S(=O)(=O)c2ccc(Cl)cc2)c1
7,94%,Cc1ccc(S[C@@H]2C[C@@H](c3cccc(Br)c3)N(S(=O)(=O)c3ccc(C)cc3)C[C@H]2C(=O)O)cc1
8,79.3%,Cc1ccc([C@@H]2C[C@@H](SCCC(C)C)[C@H](C(=O)O)CN2S(=O)(=O)c2ccccc2)cc1
9,75.6%,COc1ccc([C@@H]2C[C@@H](SCC(C)C)[C@H](C(=O)O)CN2S(=O)(=O)c2ccc(Cl)cc2)cc1
10,81.3%,Cc1ccc([C@H]2C(C(=O)O)=CC[C@@H](c3cccc(F)c3)N2S(=O)(=O)c2ccc(C)cc2)cc1
11,65%,COc1cccc([C@@H]2CC=C(C(=O)O)[C@H](c3ccc(F)cc3)N2S(=O)(=O)c2ccc(C)cc2)c1
12,63.7%,COc1ccc([C@@H]2CC=C(C(=O)O)[C@H](c3ccc(Br)cc3)N2S(=O)(=O)c2ccccc2C)cc1
13,65.8%,CCCCCS[C@@H]1C[C@@H](c2ccc(CC)cc2)N(S(=O)(=O)c2ccc(C)cc2)C[C@H]1C(=O)O
14,39.1%,Cc1ccc(S(=O)(=O)N2[C@@H](c3cccc(Br)c3)C(C(=O)O)=CC[C@H]2c2cccc(C)c2)cc1
15,74.3%,CCCCCS[C@@H]1C[C@@H](c2ccc(C)cc2)N(S(=O)(=O)c2ccc(C)cc2)C[C@H]1C(=O)O
16,75.6%,Cc1ccc(S(=O)(=O)N2[C@@H](c3ccc(Cl)cc3)C(C(=O)O)=CC[C@H]2c2cccs2)cc1
17,75%,Cc1ccc(S(=O)(=O)N2[C@@H](c3cccc(F)c3)C(C(=O)O)=CC[C@H]2c2ccccc2F)cc1
18,62.4%,Cc1ccc(S[C@@H]2C[C@@H](c3ccc(C)cc3)N(S(=O)(=O)c3ccc(C)cc3)C[C@H]2C(=O)O)cc1
